According to PMC9199891 (Clinical and Translational Science, 2022):

Assay: Single-dose pharmacokinetics of omeprazole
Assay type: in vivo, healthy Chinese volunteers
Details: for AUC0-t / AUC0-∞ / Cmax: 20 mg single oral dose, mean ± SD; for Tmax: human, plasma, oral, 20 mg

**Q.** Which results are given for COc1ccc2[nH]c([S+]([O-])Cc3ncc(C)c(OC)c3C)nc2c1 (centres unmarked) [omeprazole]?
**A.** AUC0-t (CYP2C19 *1/*1 (n = 263)): 466.2 ± 493.2 ng·h/mL; AUC0-∞ (CYP2C19 *1/*1 (n = 263)): 499.3 ± 498.4 ng·h/mL; Cmax (CYP2C19 *1/*1 (n = 263)): 309 ± 227 ng/mL; AUC0-t (CYP2C19 *1/*2 (n = 241)): 766.4 ± 529.4 ng·h/mL; AUC0-∞ (CYP2C19 *1/*2 (n = 241)): 817.8 ± 524.4 ng·h/mL; Cmax (CYP2C19 *1/*2 (n = 241)): 449 ± 309 ng/mL; AUC0-t (CYP2C19 *1/*3 (n = 48)): 707.8 ± 490.3 ng·h/mL; AUC0-∞ (CYP2C19 *1/*3 (n = 48)): 808.0 ± 545.9 ng·h/mL; Cmax (CYP2C19 *1/*3 (n = 48)): 440 ± 390 ng/mL; AUC0-t (CYP2C19 *1/*17 (n = 6)): 363.8 ± 232.6 ng·h/mL; AUC0-∞ (CYP2C19 *1/*17 (n = 6)): 366.5 ± 233.4 ng·h/mL; AUC0-t (CYP2C19 *2/*2 (n = 74)): 3379 ± 1421 ng·h/mL; AUC0-∞ (CYP2C19 *2/*2 (n = 74)): 3790 ± 1311 ng·h/mL; Cmax (CYP2C19 *2/*2 (n = 74)): 1130 ± 992 ng/mL; AUC0-t (CYP2C19 *2/*3 (n = 17)): 3908 ± 1560 ng·h/mL; AUC0-∞ (CYP2C19 *2/*3 (n = 17)): 4221 ± 1453 ng·h/mL; Cmax (CYP2C19 *2/*3 (n = 17)): 1040 ± 550 ng/mL; AUC0-t (CYP2C19 *2/*17 (n = 2)): 507.3 ± 150.3 ng·h/mL; AUC0-∞ (CYP2C19 *2/*17 (n = 2)): 693.0 ± 109.6 ng·h/mL; Cmax (CYP2C19 *2/*17 (n = 2)): 530 ± 344 ng/mL; AUC0-t (CYP2C19 *3/*3 (n = 2)): 3913 ± 493.0 ng·h/mL; AUC0-∞ (CYP2C19 *3/*3 (n = 2)): 4444 ± 793.4 ng·h/mL; Cmax (CYP2C19 *3/*3 (n = 2)): 884 ± 575 ng/mL; AUC0-t (CYP2C19 *3/*17 (n = 3)): 544.8 ± 14.52 ng·h/mL; AUC0-∞ (CYP2C19 *3/*17 (n = 3)): 547.0 ± 14.47 ng·h/mL; Cmax (CYP2C19 phenotype IM (n = 294)): 447 ± 322 ng/mL; AUC0-t (CYP2C19 phenotype NM (n = 263)): 466.16 ± 493.21 ng·h/mL; Cmax (CYP2C19 phenotype NM (n = 263)): 308 ± 227 ng/mL; AUC0-t (CYP2C19 phenotype PM (n = 93)): 3487.32 ± 1440.13 ng·h/mL; AUC0-∞ (CYP2C19 phenotype PM (n = 93)): 3883.09 ± 1331.02 ng·h/mL; Cmax (CYP2C19 phenotype PM (n = 93)): 1110 ± 916 ng/mL; AUC0-t (CYP2C19 phenotype RM (n = 6)): 363.77 ± 232.56 ng·h/mL; Cmax increase in PM (PM versus IM): 2.5 fold; Tmax (after administration in all groups (four phenotype groups)): 3.89 to 4.45 h; Tmax (after administration in all subjects (nine diplotype groups)): 1.33 to 4.6 h
